In patent US7851474B2, “Dipiperazinyl ketones and related analogues” (Neurogen Corporation, priority 2005, dated 2010) one finds Ki data, which are given here for 29 compounds.

Each structure is given as a SMILES string.

For the first experiment, the target named is T1, chimeric human H3 receptor (Homo sapiens, UniProt Q9Y5N1, E19D).
T1 construct: made in house; host or cells: Sf9 insect cells (baculovirus infection); P2 membrane preparation
T1 sequence (Q9Y5N1 with tags, fused parts or gaps E19D): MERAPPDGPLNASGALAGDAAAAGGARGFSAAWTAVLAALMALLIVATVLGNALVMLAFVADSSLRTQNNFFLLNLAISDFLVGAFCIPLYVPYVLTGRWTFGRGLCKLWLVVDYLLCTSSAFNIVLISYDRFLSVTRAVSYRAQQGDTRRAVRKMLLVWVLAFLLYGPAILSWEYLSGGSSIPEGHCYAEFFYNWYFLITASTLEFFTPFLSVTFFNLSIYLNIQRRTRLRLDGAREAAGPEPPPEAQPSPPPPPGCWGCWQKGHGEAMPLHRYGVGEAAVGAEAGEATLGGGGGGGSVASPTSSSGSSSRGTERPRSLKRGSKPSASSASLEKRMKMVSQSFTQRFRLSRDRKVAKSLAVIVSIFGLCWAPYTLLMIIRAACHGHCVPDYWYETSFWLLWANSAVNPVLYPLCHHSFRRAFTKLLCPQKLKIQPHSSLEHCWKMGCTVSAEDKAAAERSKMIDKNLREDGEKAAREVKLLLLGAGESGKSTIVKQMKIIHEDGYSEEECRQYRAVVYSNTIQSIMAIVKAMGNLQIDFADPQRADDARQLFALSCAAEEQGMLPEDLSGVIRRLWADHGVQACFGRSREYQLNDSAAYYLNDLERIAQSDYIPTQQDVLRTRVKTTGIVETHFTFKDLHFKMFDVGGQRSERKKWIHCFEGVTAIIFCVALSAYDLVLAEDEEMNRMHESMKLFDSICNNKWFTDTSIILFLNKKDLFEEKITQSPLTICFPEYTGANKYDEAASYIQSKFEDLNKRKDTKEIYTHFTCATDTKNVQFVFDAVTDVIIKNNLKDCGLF
Put plainly: Chimeric human H3 receptor GTP binding assay (agonist-stimulated GTP-gamma35S binding, Example 7). The experiment is classed as biochemical. The note with it: "*" in Ki of Table II; assay of Example 7; read-out: Ki. An excerpt: This Example illustrates a representative assay for evaluating agonist-stimulated GTP-gamma^35S binding (“GTP binding”) activity. […] This agonist-stimulated GTP binding activity can also be used to detect partial agonism mediated by antagonist compounds. A compound analyzed in this assay is referred to herein as a “test compound.”
Four independent baculoviral stocks (one directing the expression of the chimeric human H3 receptor and three directing the expression of each of the three subunits of a heterotrimeric G-protein) are used to infect a culture of Sf9 cells as described above. P2 membranes are prepared as described above, and agonist-stimulated GTP binding on the P2 membranes is assessed using histamine (Sigma Chemical Co., St. Louis, Mo.) as agonist in order to ascertain that the receptor/G-protein-alpha-beta-gamma combination(s) yield a functional response as measured by GTP binding. P2 membranes are resuspended by Dounce homogenization (tight pestle) in GTP binding assay buffer (50 mM Tris pH 7.4, 120 mM NaCl, 5 mM MgCl2, 2 mM EGTA, 1 mg/ml BSA, 0.2 mg/ml bacitracin, 0.02 mg/ml aprotinin, 0.01 mg/ml saponin, 10 μM GDP) and added to assay tubes at a concentration of 35 μg protein/reaction tube. […] In competition experiments, non-radiolabeled test compounds are added to separate reactions at concentrations ranging from 10^−10 M to 10^−6 M along with 1 μM histamine to yield a final volume of 0.20 ml.
Neutral antagonists are antagonists that are substantially free of inherent agonist activity, and include those test compounds that reduce the histamine-stimulated GTP binding activity towards, but not below, baseline levels. In contrast, in the absence of added histamine, inverse agonists reduce the GTP binding activity of the receptor-containing membranes below baseline.
After a 60-min incubation at room temperature, reactions are terminated by vacuum filtration over WHATMAN GF/C filters (pre-soaked in wash buffer, 0.1% BSA) followed by washing with ice-cold wash buffer (50 mM Tris pH 7.4, 120 mM NaCl). The amount of receptor-bound (and thereby membrane-bound) GTP-gamma^35S is determined by measuring the filter-bound radioactivity, preferably by liquid scintillation spectrometry of the washed filters. […] Data is expressed as percent above basal (baseline). The results of GTP binding experiments are analyzed using SIGMAPLOT software (SPSS Inc., Chicago, Ill.).
IC50 values are calculated by non-linear regression analysis of dose-response curves using Kaleidograph (Synergy Software, Reading, Pa.).
On the technique in general: Binding of GTPγS marks nucleotide exchange on a G protein.
Usually Ki stands for the equilibrium dissociation constant of an inhibitor or competing ligand from its target. Take `O=C(CN1CCC2(CC1)C(=O)N(Cc1ccccc1)c1cccnc12)N1CCN(C2CCC2)CC1` [Compound 492, 1′-benzyl-1-[2-(4-cyclobutylpiperazin-1-yl)-2-oxoethyl]spiro[piperidine-4,3′-pyrrolo[3,2-b]pyridin]-2′(1′H)-one]: the inhibitory constant (Ki) is under 1000 nM.

The same experiment, now with this note: Table II "Ki", symbol "*": Ki in the assay of Example 7; read-out: Ki.
On to `CCCCc1ccc(-c2cnc(N3CCN(CC(=O)N4CCN(C5CCC5)CC4)CC3)cn2)cc1` [Compound 901, 2-(4-butylphenyl)-5-{4-[2-(4-cyclobutylpiperazin-1-yl)-2-oxoethyl]piperazin-1-yl}pyrazine], for which the Ki is under 1000 nM.

As for `O=C(CN1CCN(C(=O)C2CCCO2)CC1)N1CCN(C2CCCCC2)CC1` (centres unmarked) [Compound 826, 1-cyclohexyl-4-{[4-(tetrahydrofuran-2-ylcarbonyl)piperazin-1-yl]acetyl}piperazine], the inhibition constant (Ki) is under 1000 nM.

In the case of `O=C(CN1CCN(c2ccc(F)c(C(F)(F)F)c2)CC1)N1CCN(C2CCCCC2)CC1` [Compound 804, 1-cyclohexyl-4-({4-[4-fluoro-3-(trifluoromethyl)phenyl]piperazin-1-yl}acetyl)piperazine], the inhibition constant Ki is under 1000 nM.

Turning to `CCC(C)N1CCN(C(=O)CN2CCN(c3cc(C)ccc3C)CC2)CC1` (centres unmarked) [Compound 864, 1-sec-butyl-4-{[4-(2,5-dimethylphenyl)piperazin-1-yl]acetyl}piperazine], the inhibitory constant (Ki) was under 1000 nM.

Turning to `O=C(CN1CCN(c2ccc(C(F)(F)F)cc2)CC1)N1CCN(C2CCCC2)CC1` [Compound 829, 1-cyclopentyl-4-({4-[4-(trifluoromethyl)phenyl]-1-piperazinyl}acetyl) piperazine], the Ki was under 1000 nM.

As to `CCC(C)N1CCN(C(=O)CN2CCN(c3ccc(Cl)c(Cl)c3)CC2)CC1` (centres unmarked) [Compound 869, 1-sec-butyl-4-{[4-(3,4-dichlorophenyl)piperazin-1-yl]acetyl}piperazine], the Ki was under 1000 nM.

Take `O=C(CN1CCN(c2cnc(-c3ccccc3)cn2)CC1)N1CCN(C2CCC2)CC1` [Compound 918, 2-{4-[2-(4-cyclobutylpiperazin-1-yl)-2-oxoethyl]piperazin-1-yl}-5-phenylpyrazine]: the Ki was under 1000 nM.

Staying with this experiment, now noted: Table II, "*" in Ki; assay of Example 7; read-out: Ki.
Take `Cc1ccc(-c2ccc(N3CCN(CC(=O)N4CCN(C5CCC5)CC4)CC3)cc2)cc1C` [Compound 735, 1-cyclobutyl-4-{[4-(3′,4′-dimethylbiphenyl-4-yl)piperazin-1-yl]acetyl}piperazine]: the inhibition constant Ki is under 1000 nM.

For the compound `COc1ccc(-c2ccc(N3CCN(CC(=O)N4CCN(C5CCC5)CC4)CC3)cc2)cc1OC` [Compound 732, 1-cyclobutyl-4-{[4-(3′,4′-dimethoxybiphenyl-4-yl)piperazin-1-yl]acetyl}piperazine], the Ki is under 1000 nM.

On to `O=C(CN1CCN(c2ccc(-c3ccc4c(c3)OCCO4)cc2)CC1)N1CCN(C2CCC2)CC1` [Compound 592, 1-cyclobutyl-4-({4-[4-(2,3-dihydro-1,4-benzodioxin-6-yl)phenyl]piperazin-1-yl}acetyl)piperazine], for which the Ki is under 1000 nM.

The experiment is the same for the next values; noted with them: Table II; assay of Example 7; "*" in Ki; read-out: Ki.
Regarding `O=C(CN1CCN(c2ccc(-c3cccc(C(F)(F)F)c3)nn2)CC1)N1CCN(C2CCC2)CC1` [Compound 1063, 3-{4-[2-(4-cyclobutylpiperazin-1-yl)-2-oxoethyl]piperazin-1-yl}-6-[3-(trifluoromethyl)phenyl] pyridazine], the Ki is under 1000 nM.

Consider `COc1ccccc1-c1ccc(N2CCN(CC(=O)N3CCN(C4CCC4)CC3)CC2)nn1` [Compound 1039, 3-{4-[2-(4-cyclobutylpiperazin-1-yl)-2-oxoethyl]piperazin-1-yl}-6-(2-methoxyphenyl) pyridazine], for which the Ki is under 1000 nM.

As to `CCCCc1ccc(-c2ccc(N3CCN(CC(=O)N4CCN(C5CCC5)CC4)CC3)nn2)cc1` [Compound 989, 3-(4-butylphenyl)-6-{4-[2-(4-cyclobutylpiperazin-1-yl)-2-oxoethyl]piperazin-1-yl}pyridazine], the Ki was under 1000 nM.

For `C=CCN1CCN(C(=O)CN2CCN(c3ccc(OC)cc3)C(C)C2)CC1` (centres unmarked) [Compound 1102, 4-[2-(4-allylpiperazin-1-yl)-2-oxoethyl]-1-(4-methoxyphenyl)-2-methylpiperazine], the Ki is under 1000 nM.

For the compound `COc1ccc(N2CCN(CC(=O)N3CCN(C4CCC4)CC3)CC2C)cc1` (centres unmarked) [Compound 1103, 4-[2-(4-cyclobutylpiperazin-1-yl)-2-oxoethyl]-1-(4-methoxyphenyl)-2-methylpiperazine], the Ki was under 1000 nM.

Take `O=C(CN1CCN(c2ccc(-c3ccc(C(F)(F)F)cc3)nn2)CC1)N1CCN(C2CCC2)CC1` [Compound 1062, 3-{4-[2-(4-cyclobutylpiperazin-1-yl)-2-oxoethyl]piperazin-1-yl}-6-[4-(trifluoromethyl)phenyl] pyridazine]: the Ki was under 1000 nM.

With `O=C(CN1CCN(c2ccc(-c3cncnc3)nn2)CC1)N1CCN(C2CCC2)CC1` [Compound 1001, 3-{4-[2-(4-cyclobutylpiperazin-1-yl)-2-oxoethyl]piperazin-1-yl}-6-pyrimidin-5-ylpyridazine], the Ki was under 1000 nM.

As for `CCCc1ccc(-c2ccc(N3CCN(CC(=O)N4CCN(C5CCC5)CC4)CC3)nn2)cc1` [Compound 1018, 3-{4-[2-(4-cyclobutylpiperazin-1-yl)-2-oxoethyl]piperazin-1-yl}-6-(4-propylphenyl)pyridazine], the Ki was under 1000 nM.

For the compound `O=C(CN1CCN(c2ccc(-c3cc(F)ccc3F)nn2)CC1)N1CCN(C2CCC2)CC1` [Compound 1048, 3-{4-[2-(4-cyclobutylpiperazin-1-yl)-2-oxoethyl]piperazin-1-yl}-6-(2,5-difluorophenyl)pyridazine], the inhibitory constant (Ki) is under 1000 nM.

Consider `Cc1ccc(-c2ccc(N3CCN(CC(=O)N4CCN(C5CCC5)CC4)CC3)nn2)cc1` [Compound 1012, 3-{4-[2-(4-cyclobutylpiperazin-1-yl)-2-oxoethyl]piperazin-1-yl}-6-(4-methylphenyl)pyridazine], for which the inhibition constant (Ki) is under 1000 nM.

`Cc1cccc(-c2ccc(N3CCN(CC(=O)N4CCN(C5CCC5)CC4)CC3)nn2)c1` [Compound 1011, 3-{4-[2-(4-cyclobutylpiperazin-1-yl)-2-oxoethyl]piperazin-1-yl}-6-(3-methylphenyl)pyridazine]: the inhibition constant Ki is under 1000 nM.

The same experiment, now with this note: assay of Example 7; symbol * in column headed Ki of Table II; read-out: Ki.
Turning to `O=C(CN1CCN(c2ccc(-c3ccc(Cl)cc3)cc2)CC1)N1CCN(C2CCC2)CC1` [Compound 355, 1-(4′-chlorobiphenyl-4-yl)-4-[2-(4-cyclobutylpiperazin-1-yl)-2-oxoethyl]piperazine], the Ki is under 1000 nM.

As to `CCC(=O)c1ccc(N2CCN(CC(=O)N3CCN(C4CCC4)CC3)CC2)cc1` [Compound 312, 1-(4-{4-[2-(4-cyclobutylpiperazin-1-yl)-2-oxoethyl]piperazin-1-yl}phenyl)propan-1-one], the Ki is under 1000 nM.

For `Cc1cccc(C)c1N1CCN(CC(=O)N2CCN(C(C)C)CC2)CC1` [Compound 268, 1-(2,6-dimethylphenyl)-4-[2-(4-isopropylpiperazin-1-yl)-2-oxoethyl]piperazine], the inhibition constant Ki is under 1000 nM.

Take `CC(C)N1C(=O)C2(CCN(CC(=O)N3CCN(C4CCC4)CC3)CC2)c2ccccc21` [Compound 422, 1′-[2-(4-cyclobutylpiperazin-1-yl)-2-oxoethyl]-1-isopropylspiro[indole-3,4′-piperidin]-2(1H)-one]: the Ki is under 1000 nM.

In the case of `COc1ccc(CN2Cc3cccnc3C23CCN(CC(=O)N2CCN(C4CCC4)CC2)CC3)c(OC)c1` [Compound 429, 1-[2-(4-cyclobutylpiperazin-1-yl)-2-oxoethyl]-6′-(2,4-dimethoxybenzyl)-5′,6′-dihydrospiro[piperidine-4,7′-pyrrolo[3,4-b]pyridine]], the inhibition constant Ki is under 1000 nM.

With `CC(=O)c1cccc(-c2ccc(N3CCN(CC(=O)N4CCN(C5CCC5)CC4)CC3)cc2)c1` [Compound 308, 1-(4′-{4-[2-(4-cyclobutylpiperazin-1-yl)-2-oxoethyl]piperazin-1-yl}biphenyl-3-yl)ethanone], the Ki was under 1000 nM.

With `O=C(CN1CCN(c2cccc(C(=O)N3CC[C@H]4CCCC[C@@H]4C3)c2)CC1)N1CCN(C2CCC2)CC1` [Compound 252, (4aR,8aS)-2-(3-{4-[2-(4-cyclobutylpiperazin-1-yl)-2-oxoethyl]piperazin-1-yl}benzoyl) decahydroisoquinoline], the inhibition constant Ki is under 1000 nM.
